Converted amounts (≈) assume the structure as drawn. Residues, ends and D or L forms follow the SMILES beside them.
Legend:
in vitro [1] = conditions: hepatocytes
physchem [2] = conditions: octan-1-ol/water
in vitro [3] = conditions: human, plasma
physchem [4] = conditions: pH 7.4 buffer

Row | SMILES | hepatocyte CLint (in vitro [1]) | logD (physchem [2]; pH 7.4, LogD7.4) | other results
1 | C[C@@H]1Cc2c([nH]c3cc(Cl)c(F)cc23)[C@]2(N1)C(=O)Nc1ccc(Cl)cc12 | 7.24 µL/min/1e6 cells | – | –
2 | CN1CCN(c2ccc(-c3cnc4cccc(-c5cc(F)c(CN6CCOCC6)c(F)c5)c4n3)cc2)CC1 | 14.4 µL/min/1e6 cells | – | –
3 | Nc1ccc2c(-c3ccncc3)c(-c3ccc(F)cc3)[nH]c2n1 | 117 µL/min/1e6 cells | – | –
4 | COc1ccc2nc(C)cc(-n3cc(CN4CCN(C(C)=O)CC4)nn3)c2c1 | 5.13 µL/min/1e6 cells | 1.3 | –
5 | Cc1nc(C(=O)N2CCOC3(CCN(Cc4ccc(Cl)cc4)CC3)C2)cs1 | 47 µL/min/1e6 cells | 2.17 | –
6 | Cc1cc(NC(=O)Nc2cccc3ccccc23)no1 | 95.5 µL/min/1e6 cells | – | –
7 | Cn1sc(=O)c2cc(S(=O)(=O)NC3CC3)ccc21 | > 150 µL/min/1e6 cells | 1.3 | –
8 | COc1cc2cc(-c3ccc(O)cc3O)nc(C)c2cc1OC | > 150 µL/min/1e6 cells | – | –
9 | C[C@@H]1CN(Cc2cc(Cl)ccc2OCC(=O)O)CCN1S(=O)(=O)c1ccccc1 | 7.48 µL/min/1e6 cells | – | fraction unbound at 5 h (in vitro [3]; PPB): 0.0051
10 | NCCc1ccc(O)c2nc(O)sc12 | > 150 µL/min/1e6 cells | – | logD (physchem [2]; pH 7.4): 0.33
11 | Cc1cc(Nc2nc(N[C@@H](C)c3ccc(F)cn3)c(C#N)cc2Cl)n[nH]1 | 6.17 µL/min/1e6 cells | – | fraction unbound at 5 h (in vitro [3]; PPB): 0.0358
12 | c1ccc(Nc2nc3c(s2)CCCc2[nH]ncc2-3)nc1 | 36.3 µL/min/1e6 cells | – | –
13 | COc1cccc(CNc2nc(NC(C)C)nc3ccsc23)c1OC | > 150 µL/min/1e6 cells | – | fraction unbound at 5 h (in vitro [3]): 0.0027
14 | COc1ccc2ncc(F)c(CCN3CCC(NCc4ccc5c(n4)NC(=O)CO5)CC3)c2n1 | 39.8 µL/min/1e6 cells | 1.78 | –
15 | COc1ccc2ncc(=O)n(CCN3CCC(NCc4cc5c(cn4)OCCO5)CC3)c2c1 | > 150 µL/min/1e6 cells | 0.93 | –
16 | C[C@@](C(=O)O[C@H]1C[N+]2(CCCc3ccncc3)CCC1CC2)(c1ccccc1)N1CCCCC1 | 82 µL/min/1e6 cells | – | fraction unbound at 5 h (in vitro [3]): 0.483
17 | C[C@@](C(=O)O[C@H]1C[N+]2(CCCc3cncnc3)CCC1CC2)(c1ccccc1)N1CCCCC1 | 66 µL/min/1e6 cells | – | –
18 | C[C@@](C(=O)O[C@H]1C[N+]2(CCCc3cc4ccccc4s3)CCC1CC2)(c1ccccc1)N1CCCCC1 | 65 µL/min/1e6 cells | – | –
19 | C[C@@](C(=O)O[C@H]1C[N+]2(CCOc3ccc(Cl)cc3)CCC1CC2)(c1ccccc1)N1CCCCC1 | 60 µL/min/1e6 cells | – | –
20 | C[C@@](C(=O)O[C@H]1C[N+]2(CCCOc3ccc(F)cc3)CCC1CC2)(c1ccccc1)N1CCCCC1 | 66 µL/min/1e6 cells | – | –
21 | C[C@@](C(=O)O[C@H]1C[N+]2(CCOCCc3ccccc3)CCC1CC2)(c1ccccc1)N1CCCCC1 | 77 µL/min/1e6 cells | – | –
22 | C[C@@](C(=O)O[C@H]1C[N+]2(CC(=O)Nc3ccncn3)CCC1CC2)(c1ccccc1)N1CCCCC1 | 39 µL/min/1e6 cells | – | –
23 | CC(C)=CCC[N+]12CCC(CC1)[C@@H](OC(=O)[C@](C)(c1ccccc1)N1CCCCC1)C2 | 101 µL/min/1e6 cells | – | –
24 | CN[C@@H](C)C(=O)N[C@H](C(=O)N[C@H]1C[C@@H]2CC[C@H]1N(CCc1ccccc1)C2)C1CCCCC1 | 19.9 µL/min/1e6 cells | 1.64 | –

Row | SMILES | hepatocyte CLint (in vitro [1]) | logD (physchem [2]; pH 7.4, LogD7.4) | other results
25 | C[C@@](CCc1ccc(-c2ccc(Cl)cc2)cc1)(C(=O)NO)S(C)(=O)=O | < 3 µL/min/1e6 cells | 2.4 | –
26 | Cc1nn(C)c(C)c1-c1cccc2c(CCCOc3cccc4ccccc34)c(C(=O)O)[nH]c12 | 61.7 µL/min/1e6 cells | – | –
27 | Cc1ccccc1-c1c(C(=O)O)n(CCCOc2cccc3ccccc23)c2ccccc12 | 123 µL/min/1e6 cells | 3.89 | –
28 | CCNC(=O)c1ccc(C)c(-n2cnc3ccc(N4CCN(C)CC4)cc3c2=O)c1 | < 3 µL/min/1e6 cells | 1.47 | –
29 | O=C(Nc1cccc(-c2nnn[nH]2)c1)c1cccc2[nH]cnc12 | 44.7 µL/min/1e6 cells | -0.05 | –
30 | O=C(Nc1cccc(-c2nnn[nH]2)c1)c1cc(O)cc(C(F)(F)F)c1 | 29.5 µL/min/1e6 cells | 0.8 | –
31 | Nc1cc(C(=O)Nc2cccc(-c3nnn[nH]3)c2)cc(C(F)(F)F)c1 | 23.4 µL/min/1e6 cells | 0.2 | –
32 | O=C(Nc1cccc(-c2nnn[nH]2)c1)c1cc(F)cc2nc[nH]c12 | 67.6 µL/min/1e6 cells | 0.29 | –
33 | NC1(c2ccc(-c3nc4ccccc4cc3-c3ccccc3)cc2)CCC1 | 148 µL/min/1e6 cells | – | solubility thermodynamic (physchem [4]): 288 µM (≈ 101 µg/mL)
34 | Cc1ccc(-c2nc3ccccc3[nH]2)cc1NC(=O)c1ccc(OCc2ccccn2)cc1 | 10.2 µL/min/1e6 cells | 3.24 | –
35 | CCC(=C(c1ccc(O)cc1)c1ccc(OCCN(C)C)cc1)c1ccccc1 | 56.2 µL/min/1e6 cells | – | –
36 | Cc1ccc(C[C@@H](C(=O)O)N2CCC(CN3CCC(Oc4ccc(Cl)c(Cl)c4)CC3)CC2)cc1 | < 3 µL/min/1e6 cells | – | –
37 | Cc1c(C(=O)NC2C3CC4CC(C3)CC2C4)cnn1-c1ccc(C(=O)O)cc1 (centres undefined) | < 3 µL/min/1e6 cells | – | –
38 | CSc1c(C(=O)NC2C3CC4CC(C3)CC2C4)cnn1-c1ccc(C(=O)O)cc1 (centres undefined) | 12.3 µL/min/1e6 cells | – | –
39 | CCC(C)(C)C[C@H](c1ccc(C(=O)O)c(Oc2cccc(Cl)c2)c1)N1CCC[C@H](n2cc(C)c(=O)[nH]c2=O)C1 | 117 µL/min/1e6 cells | 1.37 | –
40 | CCCCC[C@H](c1ccc(C(=O)O)c(Oc2cccc(Br)c2)c1)N1CCC[C@H](n2cc(C)c(=O)[nH]c2=O)C1 | 30.2 µL/min/1e6 cells | 1.69 | –
41 | CCC(C)(CC)C[C@H](c1ccc(C(=O)O)c(Oc2cccc(Br)c2)c1)N1CCC[C@H](n2cc(C)c(=O)[nH]c2=O)C1 | 69.2 µL/min/1e6 cells | 1.97 | –
42 | Cc1cn([C@H]2CCCN([C@H](CC3CCCCC3)c3ccc(C(=O)O)c(Oc4cccc(Cl)c4)c3)C2)c(=O)[nH]c1=O | 42.7 µL/min/1e6 cells | – | –
43 | O=C(O)CN1C(=O)C(=O)c2ccccc21 | 26.9 µL/min/1e6 cells | – | –
44 | Cc1cc(Oc2cc(S(=O)(=O)N3CCC[C@H](n4cc(C)c(=O)[nH]c4=O)C3)ccc2O)ccc1Cl | 20.4 µL/min/1e6 cells | 2.4 | –
45 | Cc1cn([C@H]2CCCN(S(=O)(=O)c3ccc(O)c(Oc4cc(F)cc(Cl)c4)c3)C2)c(=O)[nH]c1=O | 74.1 µL/min/1e6 cells | – | fraction unbound at 5 h (in vitro [3]; PPB): 0.0119
46 | O=C(O)c1cc2cc(OCc3ccccc3)ccc2[nH]1 | 25.7 µL/min/1e6 cells | 0.4 | –
47 | O=c1cc(-c2ccc(Br)cc2)oc2ccccc12 | < 3 µL/min/1e6 cells | – | –
48 | CC(C)C[C@H](N)C(=O)NC[C@H](O)C[C@@H](N)CC(=O)NN(C)CC(=O)O | < 3 µL/min/1e6 cells | – | –

Row | SMILES | hepatocyte CLint (in vitro [1]) | logD (physchem [2]; pH 7.4, LogD7.4) | other results
49 | C=CC(=O)Nc1ccc2ncnc(Nc3cccc(C)c3)c2c1 | > 150 µL/min/1e6 cells | 3.7 | solubility thermodynamic (physchem [4]): 16.6 µM (≈ 5.05 µg/mL)
50 | Cc1cccc2c(O)nc(-c3ccc(C(F)(F)F)cc3)nc12 | 45.7 µL/min/1e6 cells | – | –
51 | COc1ccc(C)c(Nc2ncc3ccn(-c4ccccn4)c3n2)c1 | 83.2 µL/min/1e6 cells | – | –
52 | O=C([C@@H]1CCCN1)N1CCN(c2nc(NCc3ccc(Cl)cc3Cl)c3cccnc3n2)CC1 | 6 µL/min/1e6 cells | 2.41 | –
53 | CNC(=O)c1c(F)cccc1Nc1nc(Nc2cc3c(cc2OC)CCN3C(=O)CN(C)C)nc2[nH]ccc12 | 21.9 µL/min/1e6 cells | 2.61 | –
54 | O=C(c1ccc(O)cc1O)N1CCCC1 | > 150 µL/min/1e6 cells | – | –
55 | COc1ccc(N(C(=O)c2ccccc2)C(C(=O)NC[C@@H](C)O)c2ccccc2F)c(OC)c1 (some centres undefined) | > 150 µL/min/1e6 cells | – | –
56 | CS(=O)(=O)N1CC[C@H](N(Cc2ccccc2Cl)c2ccc(C#N)c(Cl)c2)C1 | 72.4 µL/min/1e6 cells | – | logD (physchem [2]; pH 7.4): 4
57 | CCCCCCCC(=O)N[C@@H](C)C(=O)N[C@H](C(=O)N[C@@H](CCN)C(=O)N[C@H]1CCNC(=O)[C@H]([C@@H](C)O)NC(=O)[C@H](CCN)NC(=O)[C@H](CCN)NC(=O)[C@H](CC(C)C)NC(=O)[C@@H](Cc2ccccc2)NC(=O)[C@H](CCN)NC1=O)[C@@H](C)O (HELM PEPTIDE1{[CCCCCCCC(=O)[*:2]].A.T.[Dab].[Dab].[Dab].[dF].L.[Dab].[Dab].T}$PEPTIDE1,PEPTIDE1,5:R3-11:R2$$$V2.0) | < 3 µL/min/1e6 cells | – | fraction unbound at 5 h (in vitro [3]; PPB): 0.107
58 | CN(C)CC[C@H](CSc1ccccc1)Nc1ccc(S(=O)(=O)NC(=O)c2ccc(N3CCN(Cc4ccccc4-c4ccc(Cl)cc4)CC3)cc2)cc1[N+](=O)[O-] [ABT 737] | 9.55 µL/min/1e6 cells | – | –
59 | CCC1(CCC(C)C)C(=O)NC(=O)NC1=O [AMOBARBITAL] | 11.8 µL/min/1e6 cells | – | –
60 | COc1cc2nccc(Oc3ccc(NC(=O)C4(C(=O)Nc5ccc(F)cc5)CC4)cc3)c2cc1OC [CABOZANTINIB] | 3.16 µL/min/1e6 cells | – | –
61 | CC1=C(C(=O)O)N2C(=O)[C@@H](NC(=O)[C@H](N)c3ccc(O)cc3)[C@H]2SC1 [CEFADROXIL] | < 3 µL/min/1e6 cells | -0.86 | –
62 | C[C@H]1Cc2c([nH]c3cc(Cl)c(F)cc23)[C@@]2(N1)C(=O)Nc1ccc(Cl)cc12 [CIPARGAMIN] | 8.71 µL/min/1e6 cells | – | –
63 | CC(C)OC(=O)C(C)(C)Oc1ccc(C(=O)c2ccc(Cl)cc2)cc1 [FENOFIBRATE] | 54 µL/min/1e6 cells | – | –
64 | O=C(O)c1cc2ccccc2[nH]1 [INDOLE-2-CARBOXYLIC ACID] | 11 µL/min/1e6 cells | – | –
65 | N[C@@H](C(=O)N[C@@H]1C(=O)N2C(C(=O)O)=C(Cl)CC[C@H]12)c1ccccc1 [LORACARBEF ANHYDROUS] | < 3 µL/min/1e6 cells | – | –
66 | CC1(C)CCC(c2ccc(Cl)cc2)=C(CN2CCN(c3ccc(C(=O)NS(=O)(=O)c4ccc(N[C@H](CCN5CCOCC5)CSc5ccccc5)c(S(=O)(=O)C(F)(F)F)c4)cc3)CC2)C1 [NAVITOCLAX] | 9.77 µL/min/1e6 cells | 0.64 | –
67 | COC1=CC(c2cc3ccccc3[nH]2)=N/C1=C\c1[nH]c(C)cc1C [OBATOCLAX] | 22.4 µL/min/1e6 cells | 2.55 | –
68 | Cc1ccccc1C(OCCN(C)C)c1ccccc1 (centres undefined) [ORPHENADRINE] | > 150 µL/min/1e6 cells | 1.47 | –
69 | CO[C@H]1/C=C/O[C@@]2(C)Oc3c(C)c(O)c4c(O)c(cc(O)c4c3C2=O)NC(=O)/C(C)=C\C=C\[C@H](C)[C@H](O)[C@@H](C)[C@@H](O)[C@@H](C)[C@H](OC(C)=O)[C@@H]1C [RIFAMYCIN] | < 3 µL/min/1e6 cells | 1.19 | –
70 | CO[C@H]1C[C@@H]2CC[C@@H](C)[C@@](O)(O2)C(=O)C(=O)N2CCCC[C@H]2C(=O)O[C@H]([C@H](C)C[C@@H]2CC[C@@H](OC(=O)C(C)(CO)CO)[C@H](OC)C2)CC(=O)[C@H](C)/C=C(\C)[C@@H](O)[C@@H](OC)C(=O)[C@H](C)C[C@H](C)/C=C/C=C/C=C/1C [TEMSIROLIMUS] | > 150 µL/min/1e6 cells | – | –
71 | CC[C@@]1(O)C(=O)OCc2c1cc1n(c2=O)Cc2cc3c(CN(C)C)c(O)ccc3nc2-1 [TOPOTECAN] | 3.24 µL/min/1e6 cells | 0.31 | –

Reference: ChEMBL document CHEMBL3301361, “Experimental in vitro DMPK and physicochemical data on a set of publicly disclosed compounds”
